Values after ≈ are worked out from the molar mass of the structure shown. Active and inactive are the calls of the source. The rule behind the calls is not given here.
Columns and labels:
Influenza A virus [1] = assay: Antiviral activity against Influenza A/PR8/H1N1 virus infected in MDCK cells assessed as inhibition of virus yield after 48 hrs; assay type: functional
[2] = tested on: Radical scavenging activity; assay: Antioxidant activity assessed as DPPH radical scavenging activity; assay type: functional
Influenza A virus [3] = assay: Antiviral activity against Influenza A/PR8/H1N1 virus infected in MDCK cells assessed as inhibition of virus yield at 10 to 20 ug/ml after 48 hrs; assay type: functional, organism-based
Influenza A virus [4] = assay: Antiviral activity against Influenza A/PR8/H1N1 virus infected in MDCK cells assessed as inhibition of virus yield after 24 hrs; assay type: functional, organism-based
MDCK [5] = assay: Cytotoxicity against MDCK cells assessed as effect on cell viability at 50 to 100 ug/ml; assay type: cell-based, Canis lupus familiaris; conditions: dog
MDCK [6] = assay: Cytotoxicity against MDCK cells assessed as effect on cell viability at 20 ug/ml; assay type: cell-based, Canis lupus familiaris; conditions: dog
MDCK [7] = assay: Cytotoxicity against MDCK cells assessed as effect on cell morphology at 20 ug/ml; assay type: cell-based, Canis lupus familiaris; conditions: dog
MDCK [8] = assay: Cytotoxicity against MDCK cells assessed as effect on cell morphology at 50 to 100 ug/ml; assay type: cell-based, Canis lupus familiaris; conditions: dog

Compound: CCCCOC(=O)CCc1ccc(O)c(O)c1
- inhibition (Influenza A virus [1]): inactive
- EC50 [2]: 58.9 µg/mL (≈ 247 µM)

Compound: CCCCC(=O)OCCc1ccc(O)cc1
- Activity (Influenza A virus [3]): inactive

Compound: CCOC(=O)CCc1ccc(O)c(O)c1
- inhibition (Influenza A virus [1]): inactive
- EC50 [2]: 136.7 µg/mL (≈ 650 µM)

Compound: CCCC(=O)OCCc1ccc(O)cc1
- Activity (Influenza A virus [3]): inactive

Compound: NC(=O)c1ncn([C@@H]2O[C@H](CO)[C@@H](O)[C@H]2O)n1 [RIBAVIRIN]
- IC50 (Influenza A virus [4]): 14 µM

Compound: COC(=O)CCc1ccc(O)cc1
- Activity [2]: inactive

Compound: CCC(=O)OCCc1ccc(O)c(O)c1
- inhibition (INH) (Influenza A virus [1]): 75%
- EC50 [2]: 0.56 µg/mL (≈ 2.66 µM)

Compound: O=C(O)CCc1ccc(O)cc1
- Activity [2]: inactive

Compound: CCCOC(=O)CCc1ccc(O)c(O)c1
- inhibition (Influenza A virus [1]): inactive
- EC50 [2]: 89.65 µg/mL (≈ 400 µM)

Compound: CC(=O)OCCc1ccc(O)c(O)c1
- inhibition (Influenza A virus [1]): inactive
- EC50 [2]: 0.57 µg/mL (≈ 2.91 µM)

Compound: O=C(O)CCc1ccc(O)c(O)c1 [DIHYDROCAFFEIC ACID]
- inhibition (Influenza A virus [1]): inactive
- EC50 [2]: 61.29 µg/mL (≈ 336 µM)

Compound: CCCCC(=O)OCCc1ccc(O)c(O)c1
- Activity (MDCK [5]): Toxic
- Activity (MDCK [6]): Non-toxic
- Activity (MDCK [7]): Non-toxic
- EC50 [2]: 0.59 µg/mL (≈ 2.48 µM)
- IC50 (Influenza A virus [4]): 34 µM
- inhibition (Influenza A virus [4]): Dose-dependent effect
- Activity (MDCK [8]): Toxic

Compound: COC(=O)CCc1ccc(O)c(O)c1
- inhibition (Influenza A virus [1]): inactive
- EC50 [2]: 161.9 µg/mL (≈ 825 µM)

Compound: CCCC(=O)OCCc1ccc(O)c(O)c1 [HYDROXYTYROSOL BUTANOATE]
- Activity (MDCK [5]): Toxic
- Activity (MDCK [6]): Non-toxic
- Activity (MDCK [7]): Non-toxic
- EC50 [2]: 0.58 µg/mL (≈ 2.59 µM)
- IC50 (Influenza A virus [4]): 29.8 µM
- inhibition (Influenza A virus [4]): Dose-dependent effect
- Activity (MDCK [8]): Toxic

Reference: ChEMBL document CHEMBL3091354, “Tyrosinase and Layer-by-Layer supported tyrosinases in the synthesis of lipophilic catechols with antiinfluenza activity” (Bioorg Med Chem, 2013)
